Assay results: publication doi:10.1101/2023.10.20.563248v1 (biorxiv, 2023)

Assays:
Details in all cases: 1 µM; inhibitor
[1] = target: SGK2 (Homo sapiens, UniProt Q9HBY8)
[2] = target: COT (Homo sapiens, UniProt P41279)
[3] = target: LIMK2 (Homo sapiens, UniProt P53671)
[4] = target: PAK2 (Homo sapiens, UniProt Q13177)
[5] = target: SRPK1 (Homo sapiens, UniProt Q96SB4)
[6] = target: PRKD2 (Homo sapiens, UniProt Q9BZL6)
[7] = target: DYRK1A (Homo sapiens, UniProt Q13627)
[8] = target: MST2 (Homo sapiens, UniProt Q13188)
[9] = target: EPHA4 (Homo sapiens, UniProt P54764)
[10] = target: ARK5 (Homo sapiens, UniProt O60285)
[11] = target: MARK3 (Homo sapiens, UniProt P27448)
[12] = target: CDK8 (Homo sapiens, UniProt P49336)
[13] = target: BMX (Homo sapiens, UniProt P51813)
[14] = target: ERK5 (Homo sapiens, UniProt Q13164)
[15] = target: EIF2AK2 (Homo sapiens, UniProt P19525)
[16] = target: MEK1 (Homo sapiens, UniProt Q02750)
[17] = target: ACVR1B (Homo sapiens, UniProt P36896)
[18] = target: FER (Homo sapiens, UniProt P16591)
[19] = target: PRKG1 (Homo sapiens, UniProt Q13976)
[20] = target: STK39 (Homo sapiens, UniProt Q9UEW8)
[21] = target: RPS6KA5 (Homo sapiens, UniProt O75582)
[22] = target: CAMK4 (Homo sapiens, UniProt Q16566)
[23] = target: RIPK4 (Homo sapiens, UniProt P57078)
[24] = target: PAK1 (Homo sapiens, UniProt Q13153)
[25] = target: VEGFR1 (Homo sapiens, UniProt P17948)
[26] = target: TBK1 (Homo sapiens, UniProt Q9UHD2)
[27] = target: EPHB3 (Homo sapiens, UniProt P54753)
[28] = target: PKCmu (Homo sapiens, UniProt Q15139)
[29] = target: PAK4 (Homo sapiens, UniProt O96013)
[30] = target: MATK (Homo sapiens, UniProt P42679)
[31] = target: MAP4K4 (Homo sapiens, UniProt O95819)

Chain of PRKG1 (Q13976 whole entry): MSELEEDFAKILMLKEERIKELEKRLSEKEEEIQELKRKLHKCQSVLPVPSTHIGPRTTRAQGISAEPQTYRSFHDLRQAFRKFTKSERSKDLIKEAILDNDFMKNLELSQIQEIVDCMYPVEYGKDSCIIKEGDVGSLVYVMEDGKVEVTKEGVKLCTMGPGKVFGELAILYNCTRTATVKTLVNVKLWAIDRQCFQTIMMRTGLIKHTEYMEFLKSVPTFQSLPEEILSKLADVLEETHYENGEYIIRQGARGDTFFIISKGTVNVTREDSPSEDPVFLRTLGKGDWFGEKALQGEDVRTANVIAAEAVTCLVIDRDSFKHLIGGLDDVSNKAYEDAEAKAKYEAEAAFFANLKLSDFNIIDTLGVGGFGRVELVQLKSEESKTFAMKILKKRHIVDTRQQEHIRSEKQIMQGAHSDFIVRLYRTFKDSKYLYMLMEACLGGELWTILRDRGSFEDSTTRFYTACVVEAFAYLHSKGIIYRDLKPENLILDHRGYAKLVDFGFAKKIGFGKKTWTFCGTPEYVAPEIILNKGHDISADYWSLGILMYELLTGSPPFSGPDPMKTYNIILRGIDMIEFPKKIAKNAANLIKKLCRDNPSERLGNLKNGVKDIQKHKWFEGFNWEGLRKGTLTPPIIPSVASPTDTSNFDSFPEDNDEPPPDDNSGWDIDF
Chain of ARK5 (O60285 whole entry): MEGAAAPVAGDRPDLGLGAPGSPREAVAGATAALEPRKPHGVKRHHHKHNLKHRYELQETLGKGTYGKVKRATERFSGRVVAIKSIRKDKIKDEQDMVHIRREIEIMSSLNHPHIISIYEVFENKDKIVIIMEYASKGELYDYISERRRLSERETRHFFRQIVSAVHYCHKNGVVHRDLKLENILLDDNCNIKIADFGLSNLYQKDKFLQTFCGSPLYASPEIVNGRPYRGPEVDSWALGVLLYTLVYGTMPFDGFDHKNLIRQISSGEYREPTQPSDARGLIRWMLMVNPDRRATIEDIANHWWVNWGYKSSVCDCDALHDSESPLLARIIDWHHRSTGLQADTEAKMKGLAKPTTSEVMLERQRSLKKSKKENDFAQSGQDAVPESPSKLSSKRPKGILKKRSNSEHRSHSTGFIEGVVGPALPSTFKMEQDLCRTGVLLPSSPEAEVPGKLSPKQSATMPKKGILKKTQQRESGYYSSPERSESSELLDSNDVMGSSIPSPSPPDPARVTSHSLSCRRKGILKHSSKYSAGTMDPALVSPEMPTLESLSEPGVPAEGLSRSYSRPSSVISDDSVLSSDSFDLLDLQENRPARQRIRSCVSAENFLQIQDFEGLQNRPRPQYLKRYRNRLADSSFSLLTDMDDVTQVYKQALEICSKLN
Chain of MEK1 (Q02750 whole entry): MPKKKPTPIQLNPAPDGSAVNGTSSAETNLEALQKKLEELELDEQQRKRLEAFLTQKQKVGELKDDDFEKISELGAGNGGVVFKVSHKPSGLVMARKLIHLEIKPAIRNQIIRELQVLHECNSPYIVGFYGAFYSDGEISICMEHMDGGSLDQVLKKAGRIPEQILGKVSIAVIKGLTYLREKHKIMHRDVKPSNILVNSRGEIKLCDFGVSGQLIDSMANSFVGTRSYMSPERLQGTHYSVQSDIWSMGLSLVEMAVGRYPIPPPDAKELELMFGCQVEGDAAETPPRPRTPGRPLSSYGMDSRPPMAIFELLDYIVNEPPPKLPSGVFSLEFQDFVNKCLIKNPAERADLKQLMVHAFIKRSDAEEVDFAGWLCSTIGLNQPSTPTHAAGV
Chain of PAK4 (O96013 whole entry): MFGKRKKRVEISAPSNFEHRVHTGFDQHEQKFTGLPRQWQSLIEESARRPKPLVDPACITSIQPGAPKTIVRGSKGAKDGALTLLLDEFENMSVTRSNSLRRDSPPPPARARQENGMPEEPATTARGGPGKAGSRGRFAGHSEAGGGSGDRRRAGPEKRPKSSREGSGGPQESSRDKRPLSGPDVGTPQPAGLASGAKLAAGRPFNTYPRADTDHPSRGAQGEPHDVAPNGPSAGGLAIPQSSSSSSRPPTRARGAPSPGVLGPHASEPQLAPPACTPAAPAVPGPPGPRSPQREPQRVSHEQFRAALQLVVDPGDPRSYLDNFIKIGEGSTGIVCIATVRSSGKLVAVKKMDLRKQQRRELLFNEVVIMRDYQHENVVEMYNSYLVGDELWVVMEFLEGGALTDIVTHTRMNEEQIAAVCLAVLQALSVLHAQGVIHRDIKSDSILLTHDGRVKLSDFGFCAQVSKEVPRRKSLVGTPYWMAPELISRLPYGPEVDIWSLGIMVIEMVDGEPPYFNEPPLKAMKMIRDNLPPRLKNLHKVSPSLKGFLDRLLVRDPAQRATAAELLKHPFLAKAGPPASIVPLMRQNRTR
Chain of PKCmu (Q15139 whole entry): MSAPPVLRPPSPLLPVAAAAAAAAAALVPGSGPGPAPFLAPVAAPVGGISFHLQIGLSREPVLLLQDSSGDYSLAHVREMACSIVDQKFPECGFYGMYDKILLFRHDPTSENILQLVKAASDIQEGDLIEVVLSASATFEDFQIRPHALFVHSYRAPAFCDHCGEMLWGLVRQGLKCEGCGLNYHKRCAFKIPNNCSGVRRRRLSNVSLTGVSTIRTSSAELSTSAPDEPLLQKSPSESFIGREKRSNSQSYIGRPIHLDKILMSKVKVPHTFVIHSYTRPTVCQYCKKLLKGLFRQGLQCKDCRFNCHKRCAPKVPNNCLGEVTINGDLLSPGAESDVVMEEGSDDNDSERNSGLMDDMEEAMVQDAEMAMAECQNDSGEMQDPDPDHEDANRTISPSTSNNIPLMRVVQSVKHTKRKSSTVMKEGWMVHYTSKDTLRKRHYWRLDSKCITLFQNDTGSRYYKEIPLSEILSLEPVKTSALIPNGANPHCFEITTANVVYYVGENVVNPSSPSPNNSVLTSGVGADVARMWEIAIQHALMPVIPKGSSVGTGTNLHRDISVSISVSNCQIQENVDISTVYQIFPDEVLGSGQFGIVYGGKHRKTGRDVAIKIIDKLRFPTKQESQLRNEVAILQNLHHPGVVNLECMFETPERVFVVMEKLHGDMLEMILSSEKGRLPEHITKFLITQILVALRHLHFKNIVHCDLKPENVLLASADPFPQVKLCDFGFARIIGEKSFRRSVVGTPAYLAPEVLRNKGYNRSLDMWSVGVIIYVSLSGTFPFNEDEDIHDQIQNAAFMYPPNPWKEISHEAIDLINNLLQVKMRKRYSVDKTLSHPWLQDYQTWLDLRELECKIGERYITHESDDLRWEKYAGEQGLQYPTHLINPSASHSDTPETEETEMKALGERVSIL
Chain of TBK1 (Q9UHD2 whole entry): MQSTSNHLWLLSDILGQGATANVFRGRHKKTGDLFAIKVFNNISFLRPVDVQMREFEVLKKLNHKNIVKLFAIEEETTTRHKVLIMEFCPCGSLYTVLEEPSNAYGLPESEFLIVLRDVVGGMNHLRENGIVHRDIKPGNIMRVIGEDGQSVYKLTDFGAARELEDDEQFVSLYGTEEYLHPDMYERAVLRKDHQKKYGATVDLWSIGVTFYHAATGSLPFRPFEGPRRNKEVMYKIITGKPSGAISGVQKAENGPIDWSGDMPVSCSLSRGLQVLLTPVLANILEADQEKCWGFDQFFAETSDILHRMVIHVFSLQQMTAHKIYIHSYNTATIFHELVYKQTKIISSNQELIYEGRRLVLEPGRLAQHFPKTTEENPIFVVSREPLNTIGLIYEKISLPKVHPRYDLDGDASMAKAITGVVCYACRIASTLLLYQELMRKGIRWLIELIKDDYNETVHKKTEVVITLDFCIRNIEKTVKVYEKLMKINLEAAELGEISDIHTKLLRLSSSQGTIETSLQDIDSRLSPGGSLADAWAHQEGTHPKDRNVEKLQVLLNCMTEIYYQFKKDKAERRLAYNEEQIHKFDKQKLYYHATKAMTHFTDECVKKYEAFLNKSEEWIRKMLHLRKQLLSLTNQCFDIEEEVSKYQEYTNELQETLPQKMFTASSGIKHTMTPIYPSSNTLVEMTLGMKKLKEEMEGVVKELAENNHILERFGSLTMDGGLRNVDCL
Chain of MST2 (Q13188 whole entry): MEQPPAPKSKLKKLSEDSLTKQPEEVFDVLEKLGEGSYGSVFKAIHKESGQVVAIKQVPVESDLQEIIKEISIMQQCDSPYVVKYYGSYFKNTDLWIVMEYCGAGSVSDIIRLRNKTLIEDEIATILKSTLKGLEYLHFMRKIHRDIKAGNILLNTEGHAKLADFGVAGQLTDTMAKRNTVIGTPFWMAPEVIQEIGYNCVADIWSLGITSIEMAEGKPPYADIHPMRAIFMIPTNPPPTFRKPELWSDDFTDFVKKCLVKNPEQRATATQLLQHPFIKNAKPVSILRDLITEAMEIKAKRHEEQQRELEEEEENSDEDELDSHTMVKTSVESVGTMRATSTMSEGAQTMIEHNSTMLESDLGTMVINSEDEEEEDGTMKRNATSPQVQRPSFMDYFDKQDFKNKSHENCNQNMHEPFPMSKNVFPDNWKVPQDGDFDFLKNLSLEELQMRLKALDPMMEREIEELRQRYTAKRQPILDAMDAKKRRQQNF
Chain of PAK2 (Q13177 whole entry): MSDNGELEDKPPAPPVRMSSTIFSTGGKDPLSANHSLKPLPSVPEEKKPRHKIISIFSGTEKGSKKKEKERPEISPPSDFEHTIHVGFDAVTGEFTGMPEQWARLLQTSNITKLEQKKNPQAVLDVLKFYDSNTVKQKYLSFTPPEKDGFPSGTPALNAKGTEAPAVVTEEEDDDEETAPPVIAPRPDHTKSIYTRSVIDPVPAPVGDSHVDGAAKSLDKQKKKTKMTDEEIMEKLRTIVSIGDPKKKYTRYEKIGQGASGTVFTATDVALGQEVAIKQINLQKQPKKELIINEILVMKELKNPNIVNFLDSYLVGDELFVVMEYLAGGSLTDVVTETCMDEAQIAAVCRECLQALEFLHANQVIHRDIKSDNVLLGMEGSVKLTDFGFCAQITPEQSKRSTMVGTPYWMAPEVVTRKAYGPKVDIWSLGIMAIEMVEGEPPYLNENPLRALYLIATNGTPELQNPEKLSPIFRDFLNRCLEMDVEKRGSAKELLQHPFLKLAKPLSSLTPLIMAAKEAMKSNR

In the case of `O=C1NCCCCCNc2nc(c3ccccc3n2)Nc2cc1[nH]n2` [21c, (Z)-3^1H-2,5,11-triaza-1(4,2)-quinazolina-3(3,5)-pyrazolacycloundecaphan-4-one], the “21c Remaining activity, percent of control [%]” value [1] is reported as 105.5%, the “21c Remaining activity, percent of control [%]” value [2] is reported as 115.1% and the “21c Remaining activity, percent of control [%]” value [3] is reported as 38.2%. The “21c Remaining activity, percent of control [%]” value [4] was 113.2%, the “21c Remaining activity, percent of control [%]” value [5] was 101.4% and the “21c Remaining activity, percent of control [%]” value [6] was 82.0%. For the same compound, the “21c Remaining activity, percent of control [%]” value [7] was 82.2%, the “21c Remaining activity, percent of control [%]” value [8] was 95.6% and the “21c Remaining activity, percent of control [%]” value [9] was 67.5%. The “21c Remaining activity, percent of control [%]” value [10] was 86.3%, the “21c Remaining activity, percent of control [%]” value [11] was 101.1% and the “21c Remaining activity, percent of control [%]” value [12] was 88.5%. The “21c Remaining activity, percent of control [%]” value [13] was 84.8%, the “21c Remaining activity, percent of control [%]” value [14] was 93.4% and the “21c Remaining activity, percent of control [%]” value [15] was 75.1%. For the same compound, the “21c Remaining activity, percent of control [%]” value [16] was 118.7%, the “21c Remaining activity, percent of control [%]” value [17] was 85.2% and the “21c Remaining activity, percent of control [%]” value [18] was 101.7%. The “21c Remaining activity, percent of control [%]” value [19] was 94.8%, the “21c Remaining activity, percent of control [%]” value [20] was 49.5% and the “21c Remaining activity, percent of control [%]” value [21] was 108.9%. For the same compound, the “21c Remaining activity, percent of control [%]” value [22] was 98.0%, the “21c Remaining activity, percent of control [%]” value [23] was 101.1% and the “21c Remaining activity, percent of control [%]” value [24] was 94.9%. For the same compound, the “21c Remaining activity, percent of control [%]” value [25] was 100.3%, the “21c Remaining activity, percent of control [%]” value [26] was 111.6% and the “21c Remaining activity, percent of control [%]” value [27] was 105.4%. For the same compound, the “21c Remaining activity, percent of control [%]” value [28] was 96.1%, the “21c Remaining activity, percent of control [%]” value [29] was 95.1% and the “21c Remaining activity, percent of control [%]” value [30] was 78.6%. For the same compound, the “21c Remaining activity, percent of control [%]” value [31] was 81.0%.
